According to publication PMC7997032, “Organic synthesis and anti-influenza A virus activity of cyclobakuchiols A, B, C, and D” (PLoS ONE, 2021):
Values joined by “and” are separate entries in the source; they are usually repeats but may differ in a detail not shown here. Equal values may be shown once. Read-outs that look alike come from different tables or passages of the source.

How the values were obtained:
MDCK cells = test: MTT assay (cytotoxicity against MDCK cells); assay type: cell-based, canine; settings: ≤50 μM, 24 or 72 h
Outline: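 Compounds at 0.8–100 μM (final DMSO up to 1%) in DMEM with 1% BSA and 4 mM L-glutamine incubated with cells 24 or 72 h at 37°C, 5% CO2. Viability measured by MTT.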

A/PR/8/34 virus [1] = test: RT-qPCR of viral mRNAs (NP, NS1, PA, PB1, PB2, M2) in infected MDCK cells; assay type: cell-based, influenza A H1N1 virus
A/PR/8/34 viral NA = test system: A/PR/8/34 viral NA; design: method as in PMID 26446794; settings: cited from earlier work
A/CA/7/09 viral HA = test system: A/CA/7/09 viral HA; design: method as in PMID 26446794; settings: cited from earlier work
A/WSN/33 virus [2] = test: Viability of influenza A virus-infected MDCK cells by naphthol blue-black staining; assay type: cell-based, influenza A H1N1 virus; settings: A/WSN/33, MOI 10, 72 h, 0.4–25 μM
Procedure: MDCK cells were seeded on a 96-well plate (1 × 10^4 cells/well). 2–5 (0.4–25 μM) were mixed with A/PR/8/34, A/CA/7/09, or A/WSN/33 viruses in 10% FBS-supplemented growth medium at a multiplicity of infection (MOI) of ten. DMSO (0.004–1%) or 1 (0.4–25 μM) were used as negative or positive controls, respectively. […] After incubation, the cells were stained with naphthol blue–black, as previously described. Viable cells in each well were stained blue, whereas dead cells remained unstained.

Nrf2 = Nrf2 reporter assay (dual luciferase system) in MDCK cells; assay type: cell-based, canine
A/CA/7/09 viral NA = test system: A/CA/7/09 viral NA; design: method as in PMID 26446794; settings: cited from earlier work
A/PR/8/34 virus [3] = test: Immunofluorescence staining of viral NP in influenza A virus-infected MDCK cells; settings: for NP/DAPI (%) ave: average of 9 wells; for NP/DAPI (%): single well
[4] = test system: recombinant A/PR/8/34 viral HA protein; design: method as in PMID 26446794; settings: cited from earlier work
A/WSN/33 virus [5] = test: Influenza A viral growth assay (viral titer of culture media); assay type: cell-based, influenza A H1N1 virus; settings: for viral titer of conditioned media compared with DMSO: A/WSN/34 as printed, 12.5 μM
A/PR/8/34 virus [6] = assay type: cell-based
A/PR/8/34 viral HA = test system: A/PR/8/34 viral HA; design: method as in PMID 26446794; settings: cited from earlier work
[7] = test system: canine interferon-β (Ifn-β); test: RT-qPCR of Ifn-β mRNA in MDCK cells with or without A/PR/8/34 virus; assay type: cell-based; settings: for MDCK IFN-b mRNA, ave / MDCK IFN-b mRNA, individual replicates: 12.5uM, relative to virus - DMSO; for MDCK IFN-b mRNA, ave: ave of #1-3 exp; for MDCK IFN-b mRNA, individual replicates: replicates 1-3 of #1, #2, #3 exp
[8] = test system: NAD(P)H quinone oxidoreductase 1 (Nqo1); test: RT-qPCR of Nqo1 mRNA in MDCK cells with or without A/PR/8/34 virus; assay type: cell-based, canine; settings: for NQO1 Canis lupus mRNA, ave / NQO1 Canis lupus mRNA, individual replicates: 12.5uM, MDCK, relative to virus - DMSO; for NQO1 Canis lupus mRNA, ave: ave of #1-3 exp; for NQO1 Canis lupus mRNA, individual replicates: replicates 1-3 of #1, #2, #3 exp
A/PR/8/34 virus [9] = test: Influenza A viral growth assay (viral titer of culture media); assay type: cell-based, influenza A H1N1 virus; design: viral titer of culture media, individual replicate / viral titer of culture media, ave: unit not given here
[10] = MDCK cells, PR8 virus, relative to DMSO (about 1), ave of #1-3 exp (9 values)
[11] = MDCK cells, PR8 virus, relative to DMSO, replicates 1-3 of #1, #2, #3 exp
[12] = 12.5 μM, 24h WB, average of 3 experiments
[13] = 12.5 μM, 24h WB, single experiment
[14] = 12.5 μM, 24 h post-infection, Fig 7C

Compound: C=C[C@@](C)(/C=C/c1ccc(O)cc1)CCC=C(C)C [(+)-(S)-bakuchiol, reference compound]
- cell viability / toxicity (MTT) (MDCK cells): not affected
- reduction in the level of NP mRNA compared with 4 and 5 (A/PR/8/34 virus [1]; 12.5 μM, 24 h, Fig 6A): significantly stronger
- reduction in the level of PB2 mRNA compared with 5 (A/PR/8/34 virus [1]; 12.5 μM, 24 h, Fig 6E): significantly stronger
- relative mRNA expression levels of viral genes (NP, NS1, PA, PB1, PB2, M2) compared with DMSO (A/PR/8/34 virus [1]; 12.5 μM, MOI 0.1, 24 h): significantly decreased
- PR8 NP gene expression qPCR, ave (A/PR/8/34 virus [1]; MDCK PR8, NP mRNA, relative (DMSO about 1), average of #1-3 exp (n=9)): 0.01761
- PR8 NP gene expression qPCR, individual replicate (A/PR/8/34 virus [1]; MDCK PR8, NP mRNA, relative (DMSO about 1), replicates of #1-3 exp): 0.006615 and 0.02549 and 0.02199 and 0.02377 and 0.03127 and 0.01502 and 0.01903 and 0.00944 and 0.005898
- PR8 NS1 gene expression qPCR, ave (A/PR/8/34 virus [1]; MDCK PR8, NS1 mRNA, relative (DMSO about 1), average of #1-3 exp (n=9)): 0.01277
- PR8 NS1 gene expression qPCR, individual replicate (A/PR/8/34 virus [1]; MDCK PR8, NS1 mRNA, relative (DMSO about 1), replicates of #1-3 exp): 0.005751 and 0.01688 and 0.01532 and 0.01756 and 0.02149 and 0.008029 and 0.01283 and 0.01159 and 0.005477
- PR8 PA gene expression qPCR, ave (A/PR/8/34 virus [1]; MDCK PR8, PA mRNA, relative (DMSO about 1), average of #1-3 exp (n=9)): 0.01401
- PR8 PA gene expression qPCR, individual replicate (A/PR/8/34 virus [1]; MDCK PR8, PA mRNA, relative (DMSO about 1), replicates of #1-3 exp): 0.007199 and 0.01835 and 0.01386 and 0.0158 and 0.019 and 0.01338 and 0.01452 and 0.01667 and 0.00733
- PR8 M2 gene expression qPCR, ave (A/PR/8/34 virus [1]; [10]): 0.01399
- PR8 PB1 gene expression qPCR, ave (A/PR/8/34 virus [1]; [10]): 0.009536
- PR8 PB2 gene expression qPCR, ave (A/PR/8/34 virus [1]; [10]): 0.01448
- PR8 M2 gene expression qPCR, individual replicates (A/PR/8/34 virus [1]; [11]): 0.006766 and 0.02094 and 0.01741 and 0.01624 and 0.02057 and 0.01274 and 0.01424 and 0.01232 and 0.004647
- PR8 PB1 gene expression qPCR, individual replicates (A/PR/8/34 virus [1]; [11]): 0.005288 and 0.01134 and 0.00694 and 0.008199 and 0.02025 and 0.01044 and 0.005541 and 0.01144 and 0.006386
- PR8 PB2 gene expression qPCR, individual replicates (A/PR/8/34 virus [1]; [11]): 0.00629 and 0.02178 and 0.01747 and 0.01955 and 0.0211 and 0.01165 and 0.01377 and 0.01287 and 0.005833
- inhibition of viral NA activity (A/PR/8/34 viral NA): did not inhibit
- inhibition of hemagglutination of chicken red blood cells (A/CA/7/09 viral HA): did not inhibit
- naphthol blue-black staining of infected cells (A/WSN/33 virus [2]): not stained
- Nrf2 activation (reporter assay) in contrast to DMSO (Nrf2; 12.5 μM, 24 h, MDCK cells): induce Nrf2 activation
- pNQO1-ARE-Luc NRF2 reporter assay, ave (Nrf2; 12.5uM, relative to DMSO trans+, ave of #1-3 exp): 1.302
- pNQO1-ARE-Luc NRF2 reporter assay, individual replicates (Nrf2; 12.5uM, relative to DMSO trans+, two values each of #1, #2, #3 exp): 1.091 and 1.274 and 1.491 and 1.4074 and 1.544 and 1.002
- inhibition of viral NA activity (A/CA/7/09 viral NA): did not inhibit
- percentage of influenza A NP-positive cells relative to DMSO (A/PR/8/34 virus [3]; A/PR/8/34, 3.1 μM, 24 h, Fig 4B): significantly reduced
- NP/DAPI (%) ave (A/PR/8/34 virus [3]; A/PR/8/34, 3.13 uM): 3.314%
- NP/DAPI (%) ave (A/PR/8/34 virus [3]; A/PR/8/34, 6.25 uM): 1.176%
- percentage of influenza A NP-positive cells compared with the 5-treatment (A/PR/8/34 virus [3]; A/PR/8/34, 6.3 μM, 24 h, Fig 4B): significantly reduced
- NP/DAPI (%) ave (A/PR/8/34 virus [3]; A/PR/8/34, 12.5 uM): 0.5619%
- NP/DAPI (%) (A/PR/8/34 virus [3]; A/PR/8/34, 12.5 uM, listed as (+)-S-Bakuchiol): 1.274% and 0.625% and 0.6742% and 0.2454% and 0.2653% and 0.5128% and 0.5703%
- NP/DAPI (%) (A/PR/8/34 virus [3]; A/PR/8/34, 12.5 uM, listed as (+)-S-bakuchiol): 0.4184%
- NP/DAPI (%) ave (A/PR/8/34 virus [3]; A/PR/8/34, 25 uM): 0.5226%
- percentage of influenza A NP-positive cells relative to DMSO (A/PR/8/34 virus [3]; A/PR/8/34, 6.3–12.5 μM, 24 h, Fig 4B): significantly reduced
- IC50 (A/PR/8/34 virus [3]; Influenza A virus, PR/8, MDCK, read-out: half maximal (50%) inhibitory concentration (IC50)): 2.1 ± 1.2 µM
- inhibition of trypsin digestion of recombinant HA protein [4]: did not inhibit
- viral titer of culture media, ave (A/WSN/33 virus [5]; A/WSN/33 (WSN), 12.5uM, 12h, average of #1-3 exp (n=9)): 15811.1
- viral titer of conditioned media compared with DMSO (A/WSN/33 virus [5]; 48–72 h): not reduced
- viral titer of conditioned media compared with DMSO (A/WSN/33 virus [5]; 24 h): significantly reduced
- expression of NP and NS1 proteins compared with DMSO (western blot) (A/PR/8/34 virus [6]; 12.5 μM, 8, 12 or 24 h post-infection): reduced
- NP/b-actin ave (A/PR/8/34 virus [6]; [12]): 0.4577
- NS1/b-actin ave (A/PR/8/34 virus [6]; [12]): 0.476
- NP mean (western blot signal intensity, ImageJ) (A/PR/8/34 virus [6]; [13]): 41.483 and 67.678 and 82.727
- NS1/b-actin (A/PR/8/34 virus [6]; [13]): 0.411 and 0.4433 and 0.5737
- NS1 mean (western blot signal intensity, ImageJ) (A/PR/8/34 virus [6]; [13]): 69.425 and 77.937 and 55.734
- expression level of NP protein compared with the 4 or 5 treatment groups (A/PR/8/34 virus [6]; [14]): significantly reduced
- expression levels of NP or NS1 proteins from signal intensities compared with DMSO (A/PR/8/34 virus [6]; [14]): significantly reduced
- inhibition of hemagglutination of chicken red blood cells (A/PR/8/34 viral HA): did not inhibit
- virus-induced upregulation of Ifn-β mRNA [7]: significantly reduced
- MDCK IFN-b mRNA, ave ([7]; virus +): 3.367
- MDCK IFN-b mRNA, individual replicates ([7]; virus +): 2.6311 and 8.162 and 4.8 and 5.795 and 3.073 and 1.349 and 1.382 and 0.9842 and 2.128
- MDCK IFN-b mRNA, ave ([7]; virus -): 1.794
- MDCK IFN-b mRNA, individual replicates ([7]; virus -): 0.2606 and 0.6947 and 2.008 and 8.353 and 0.6874 and 0.5651 and 1.697 and 0.7342 and 1.151
- relative mRNA level of Nqo1 compared with DMSO [8]: significantly upregulated
- NQO1 Canis lupus mRNA, ave ([8]; virus + (PR8)): 2.213
- NQO1 Canis lupus mRNA, individual replicates ([8]; virus + (PR8)): 2.486 and 2.782 and 2.118 and 2.457 and 1.645 and 1.778 and 1.772 and 2.442 and 2.434
- NQO1 Canis lupus mRNA, ave ([8]; virus -): 1.91
- NQO1 Canis lupus mRNA, individual replicates ([8]; virus -): 1.8342 and 2.199 and 2.0999 and 1.939 and 1.851 and 1.6659 and 2.003 and 1.832 and 1.767
- relative mRNA level of Nqo1 compared with DMSO ([8]; without A/PR/8/34 virus, 12.5 μM, 24 h): significantly upregulated
- viral titer of culture media, ave (A/PR/8/34 virus [9]; A/PR/8/34 (PR8), 12.5uM, 12h, average of #1-3 exp (n=9)): 23333.3
- viral titer of conditioned media compared with DMSO (A/PR/8/34 virus [9]; A/PR/8/34, 12.5 μM, 12–72 h): significantly reduced
